From ChEMBL document CHEMBL1135048, “Synthesis and biological evaluation of 2-indolyloxazolines as a new class of tubulin polymerization inhibitors. Discovery of A-289099 as an orally active antitumor agent” (Bioorg Med Chem Lett, 2002)
Converted amounts (≈) assume the structure as drawn.

How the values were obtained:
[1] = test system: HCT-15; assay: Antiproliferative activity against the MDR positive human colon adenocarcinoma cell line HCT-15; assay type: functional, cell-based
[2] = test system: NCI-H460; assay: Antiproliferative activity against the human non small cell lung carcinoma cell line NCI-H460; assay type: functional, cell-based
[3] = Oral bioavailability in rat (dose single 10 mg/kg); assay type: ADME, organism-based; settings: in vivo
[4] = target: T1, Tubulin beta chain (Bos taurus, UniProt Q6B856); assay: Activity towards binding at colchicine site of bovine brain tubulin
[5] = Area under curve value in monkey at a dose of 5 mg/kg; assay type: ADME, organism-based; parameters: dose 5 mg/kg; settings: cercopithecidae, in vivo
[6] = Half life period in dog after 5 mg/kg dose; assay type: ADME, organism-based, Canis lupus familiaris; parameters: dose 5 mg/kg; settings: in vivo
[7] = test system: A549; assay: Activity against human lung cancer with mutated beta-tubulin (A549-T2415); assay type: functional, cell-based
[8] = Area under curve value in mouse at a dose of 10 mg/kg; assay type: ADME, organism-based; parameters: dose 10 mg/kg; settings: in vivo
[9] = Oral bioavailability in dog (dose 5 mg/kg); assay type: ADME, organism-based, Canis lupus familiaris; settings: in vivo
[10] = Oral bioavailability in rat (dose 5 mg/kg; assay type: ADME, organism-based; settings: in vivo
[11] = Oral bioavailability in mouse (dose 10 mg/kg); assay type: ADME, organism-based; settings: in vivo
[12] = Half life period in rat after 5 mg/kg dose; assay type: ADME, organism-based; parameters: dose 5 mg/kg; settings: in vivo
[13] = Half life period in mouse after 10 mg/kg dose; assay type: ADME, organism-based; parameters: dose 10 mg/kg; settings: in vivo
[14] = Area under curve value in rat at a dose of 5 mg/kg; assay type: ADME, organism-based; parameters: dose 5 mg/kg; settings: in vivo
[15] = Partition coefficient of compound; assay type: physicochemical; settings: octanol/water
[16] = Solubility of compound in pH 7.4 phosphate buffer; assay type: physicochemical
[17] = pKa of the compound; assay type: physicochemical
[18] = test system: HCT-15; assay: Inhibitory concentration of compound against of microtubule […] in human HCT-15 colon carcinoma; assay type: functional, cell-based
[19] = test system: Mus musculus; assay: Increase in life span of M5076 murine ovarian sarcoma bearing mice at a dose of 50 mg/Kg/day; assay type: functional
[20] = test system: Mus musculus; assay: In vivo efficacy to delay 1 g volume of M5076 murine ovarian sarcoma formation in mice at a dose of 100 mg/Kg/day; assay type: functional
[21] = test system: Mus musculus; assay: In vivo efficacy to delay 1 g volume of M5076 murine ovarian sarcoma formation in mice at a dose of 50 mg/Kg/day; assay type: functional
[22] = (§1) Inhibition of bovine brain microtubule polymerization; assay type: functional, Bos taurus
[23] = Half life period in monkey after 5 mg/kg dose; assay type: ADME, organism-based; parameters: dose 5 mg/kg; settings: cercopithecidae, in vivo
[24] = Solubility of compound in 0.1 M HCl; assay type: physicochemical; settings: read-out: S
[25] = Oral bioavailability in monkey (dose 5 mg/kg); assay type: ADME, organism-based; settings: cercopithecidae, in vivo
[26] = Area under curve value in dog at a dose of 5 mg/kg; assay type: ADME, organism-based, Canis lupus familiaris; parameters: dose 5 mg/kg; settings: in vivo
[27] = test system: Mus musculus; assay: Increase in life span of M5076 murine ovarian sarcoma bearing mice at a dose of 100 mg/kg/day; assay type: functional
[28] = Half life period in rat after 5 mg/Kg dose; assay type: ADME, organism-based; settings: in vivo
[29] = Half life period in mouse after 10 mg/Kg dose; assay type: ADME, organism-based; settings: in vivo
[30] = target: T1, Tubulin beta chain; assay: Binding constant at colchicine site of bovine brain tubulin
[31] = species on record: Bos taurus; assay: as §1; assay type: functional

T1 sequence (Q6B856 whole entry): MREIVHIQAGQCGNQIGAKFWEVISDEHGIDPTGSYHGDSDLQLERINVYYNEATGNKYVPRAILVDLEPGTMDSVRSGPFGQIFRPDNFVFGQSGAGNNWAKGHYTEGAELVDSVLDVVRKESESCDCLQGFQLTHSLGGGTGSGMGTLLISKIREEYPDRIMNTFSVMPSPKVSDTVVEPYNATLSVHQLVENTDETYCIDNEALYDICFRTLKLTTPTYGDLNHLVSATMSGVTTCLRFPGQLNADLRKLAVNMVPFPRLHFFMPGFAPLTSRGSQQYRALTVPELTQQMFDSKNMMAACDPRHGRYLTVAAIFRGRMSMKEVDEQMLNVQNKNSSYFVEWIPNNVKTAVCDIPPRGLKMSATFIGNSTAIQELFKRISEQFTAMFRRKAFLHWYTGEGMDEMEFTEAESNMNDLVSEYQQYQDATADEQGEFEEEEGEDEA

Compound: COc1cc(C2CN=C(c3ccc4cncn4c3)O2)cc(OC)c1OC (centres undefined)
- IC50 [1]: 28000 nM
- IC50 [2]: 100000 nM

Compound: COc1cc(C2CN=C(c3ccc4c(ccn4C)c3)O2)cc(OC)c1OC (centres undefined)
- bioavailability [3]: 34.7%
- IC50 [1]: 16 nM
- IC50 [2]: 14 nM

Compound: COCn1ccc2cc(C3=NCC(c4cc(OC)c(OC)c(OC)c4)O3)ccc21 (centres undefined)
- bioavailability [3]: 34.3%
- IC50 [1]: 480 nM
- IC50 [2]: 680 nM

Compound: COc1cc(C2CN=C(c3ccc4ncccc4c3)O2)cc(OC)c1OC (centres undefined)
- IC50 [1]: 2400 nM
- IC50 [2]: 3200 nM

Compound: COc1cc(C2CN=C(c3ccc4c(c3)CCN4C)O2)cc(OC)c1OC (centres undefined)
- IC50 [1]: 510 nM
- IC50 [2]: 810 nM

Compound: COc1cc(C2CN=C(c3c[nH]c4ccccc34)O2)cc(OC)c1OC (centres undefined)
- bioavailability [3]: 0%
- IC50 [1]: 67 nM
- IC50 [2]: 82 nM

Compound: COc1cc(C2CN=C(c3ccc4c(ccn4C4CC4)c3)O2)cc(OC)c1OC (centres undefined)
- bioavailability [3]: 55.8%
- IC50 [1]: 2900 nM
- IC50 [2]: 2900 nM

Compound: COc1cc(C2CN=C(c3ccc4ccn(C)c4c3)O2)cc(OC)c1OC (centres undefined)
- bioavailability [3]: 0%
- IC50 [1]: 280 nM
- IC50 [2]: 420 nM

Compound: COc1cc(C2CN=C(c3ccc4cc[nH]c4c3)O2)cc(OC)c1OC (centres undefined)
- bioavailability [3]: 10.5%
- IC50 [1]: 120 nM
- IC50 [2]: 330 nM

Compound: COc1cc(C2OC(c3ccc(N)c(C)c3)=NN2C(C)=O)cc(OC)c1OC (centres undefined)
- IC50 [4]: 3400 nM

Compound: COc1cc([C@H]2CN=C(c3ccc4c(ccn4C)c3)O2)cc(OC)c1OC
- AUC [5]: 1750 ng·h/mL
- half-life [6]: 3.3 h
- IC50 [7]: 6.3 nM
- AUC [8]: 5690 ng·h/mL
- bioavailability [9]: 6.5%
- bioavailability [10]: 17.1%
- bioavailability [11]: 15.1%
- half-life [12]: 2.1 h
- half-life [13]: 1.1 h
- AUC [14]: 7180 ng·h/mL
- logD [15]: 3.94
- solubility [16]: 0.7 µg/mL (≈ 1.91 µM)
- pKa [17]: 5
- Concentration [18]: 44 nM
- IC50 [1]: 8.6 nM
- ILS at 50 mg/kg/day [19]: 139%
- Mean tumor delay [20]: 28.4 days
- Mean tumor delay [21]: 19 days
- IC50 [22]: 2300 nM
- IC50 [2]: 6.2 nM
- half-life [23]: 1.3 h
- solubility [24]: 1270 µg/mL (≈ 3470 µM)
- bioavailability [25]: 18.6%
- AUC [26]: 160 ng·h/mL
- ILS at 100 mg/kg/day [27]: 206%

Compound: COc1cc(C2CN=C(c3cccc4[nH]ccc34)O2)cc(OC)c1OC (centres undefined)
- bioavailability [3]: 0%
- IC50 [1]: 61 nM
- IC50 [2]: 57 nM

Compound: COc1cc(C2CN=C(c3ccc4c(c3)nc(C)n4C)O2)cc(OC)c1OC (centres undefined)
- IC50 [1]: 1300 nM
- IC50 [2]: 1200 nM

Compound: COc1cc(C2CN=C(c3ccc4[nH]cnc4c3)O2)cc(OC)c1OC (centres undefined)
- IC50 [1]: 6400 nM
- IC50 [2]: 7100 nM

Compound: COc1cc(C2CN=C(c3ccc4c(c3)cc(C)n4C)O2)cc(OC)c1OC (centres undefined)
- IC50 [1]: 170 nM
- IC50 [2]: 210 nM

Compound: COc1cc(C2CN=C(c3ccc4c(ccn4CC(F)(F)F)c3)O2)cc(OC)c1OC (centres undefined)
- bioavailability [3]: 19.8%
- IC50 [1]: 3800 nM
- IC50 [2]: 4200 nM

Compound: COc1cc(C2CN=C(c3ccnc4ccccc34)O2)cc(OC)c1OC (centres undefined)
- IC50 [1]: 44000 nM
- IC50 [2]: 37000 nM

Compound: COc1cc([C@@H]2CN=C(c3ccc4c(ccn4C)c3)O2)cc(OC)c1OC
- AUC [5]: 890 ng·h/mL
- half-life [6]: 2.9 h
- AUC [8]: 400 ng·h/mL
- bioavailability [9]: 7%
- bioavailability [10]: 44%
- bioavailability [11]: 21%
- half-life [28]: 1.3 h
- AUC [14]: 3040 ng·h/mL
- IC50 [1]: 390 nM
- IC50 [22]: 740000 nM
- IC50 [2]: 460 nM
- half-life [23]: 1.4 h
- bioavailability [25]: 16.2%
- AUC [26]: 330 ng·h/mL
- half-life [29]: 1.3 h

Compound: COc1cc(C2CN=C(c3ccc4nccn4c3)O2)cc(OC)c1OC (centres undefined)
- IC50 [1]: 40000 nM
- IC50 [2]: 16000 nM

Compound: COc1cc(C2CN=C(c3cccc4ccn(C)c34)O2)cc(OC)c1OC (centres undefined)
- IC50 [1]: 15000 nM
- IC50 [2]: 150000 nM

Compound: CC[C@]1(O)C[C@@H]2CN(CCc3c([nH]c4ccccc34)[C@@](C(=O)OC)(c3cc4c(cc3OC)N(C)[C@H]3[C@@](O)(C(=O)OC)[C@H](OC(C)=O)[C@]5(CC)C=CCN6CC[C@]43[C@@H]65)C2)C1 [VINBLASTINE]
- IC50 [1]: 43 nM
- IC50 [22]: 1000 nM
- IC50 [2]: 3.4 nM
- Ki [30]: > 100000 nM

Compound: COc1cc(C2CN=C(c3cnc4ccccc4c3)O2)cc(OC)c1OC (centres undefined)
- IC50 [1]: 160000 nM
- IC50 [2]: 270000 nM

Compound: COc1cc(C2CN=C(c3cccc4cc[nH]c34)O2)cc(OC)c1OC (centres undefined)
- bioavailability [3]: 0%
- IC50 [1]: 540 nM
- IC50 [2]: 470 nM

Compound: COc1cc(C2CN=C(c3ccc4cc(C)cn4c3)O2)cc(OC)c1OC (centres undefined)
- IC50 [1]: 520 nM
- IC50 [2]: 520 nM

Compound: COc1cc(C2CN=C(c3cc4ccccc4[nH]3)O2)cc(OC)c1OC (centres undefined)
- bioavailability [3]: 40%
- IC50 [1]: 150 nM
- IC50 [2]: 350 nM

Compound: COc1cc2c(c(OC)c1OC)-c1ccc(OC)c(=O)cc1[C@@H](NC(C)=O)CC2 [COLCHICINE]
- IC50 [1]: 140 nM
- IC50 [2]: 46 nM

Compound: COc1cc(C2CN=C(c3ccc4[nH]ccc4c3)O2)cc(OC)c1OC (centres undefined)
- bioavailability [3]: 38.1%
- IC50 [1]: 200 nM
- IC50 [2]: 100 nM

Compound: COc1ccc(/C=C\c2cc(OC)c(OC)c(OC)c2)cc1O [COMBRETASTATIN A4]
- IC50 [31]: 1600 nM

Compound: COc1cc(C2CN=C(c3cn(C)c4ccccc34)O2)cc(OC)c1OC (centres undefined)
- bioavailability [3]: 2.5%
- IC50 [1]: 37 nM
- IC50 [2]: 87 nM

Compound: CC(=O)O[C@H]1C(=O)[C@@]2(C)[C@H]([C@H](OC(=O)c3ccccc3)[C@]3(O)C[C@H](OC(=O)[C@H](O)[C@@H](NC(=O)c4ccccc4)c4ccccc4)C(C)=C1C3(C)C)[C@]1(OC(C)=O)CO[C@@H]1C[C@@H]2O [PACLITAXEL]
- IC50 [2]: > 10 nM

Compound: COc1cc(C2CN=C(c3ccc4[nH]c(O)nc4c3)O2)cc(OC)c1OC (centres undefined)
- IC50 [1]: 1200 nM
- IC50 [2]: > 100000 nM

Compound: COc1cc(C2CN=C(c3cc4ccccc4n3C)O2)cc(OC)c1OC (centres undefined)
- IC50 [1]: 660 nM
- IC50 [2]: 1500 nM

Compound: COc1cc(C2CN=C(c3ccc4c(ccn4S(C)(=O)=O)c3)O2)cc(OC)c1OC (centres undefined)
- IC50 [1]: 16300 nM
- IC50 [2]: 8180 nM

Compound: COc1cc(C2CN=C(c3cccc4c3ccn4C)O2)cc(OC)c1OC (centres undefined)
- bioavailability [3]: 2.5%
- IC50 [1]: 37 nM
- IC50 [2]: 87 nM

Compound: CCn1ccc2cc(C3=NCC(c4cc(OC)c(OC)c(OC)c4)O3)ccc21 (centres undefined)
- bioavailability [3]: 11.1%
- IC50 [1]: 70 nM
- IC50 [2]: 49 nM
